21 compounds from article PMC10054477, “Design, Synthesis, and Biological Evaluation of Sulfonamide Methoxypyridine Derivatives as Novel PI3K/mTOR Dual Inhibitors” (Pharmaceuticals, 2023) can be followed below.

The target in one experiment is T1, PI3Kα (Homo sapiens, UniProt P42336).
T1 construct: purchased SignalChem P27-122DH
Put plainly: ADP-Glo kinase assay, PI3Kα enzyme inhibition. It is filed as biochemical. Conditions: for inhibition at 0.001 µM: at 1 nM; for IC50: mean (n = 2). The protocol:
The enzymatic inhibitory assays of all target compounds against PI3Kα were performed with the ADP-Glo assay (Promega, Madison, WI, USA, catalog No. V9102/3). Briefly, compounds were continuously diluted to a certain concentration. […] The mixture was added to a 96-well plate and incubated in a dark place at ambient temperature for 40 min. Then, the kinase reaction was stopped by adding of ADP-Glo reagent and the plate was incubated again at ambient temperature for another 40 min. The kinase detection reagent was added and the signal was collected via PerkinElmer Envision plate reader (PE, Boston, MA, USA).
On the technique in general: ADP-Glo turns the ADP formed in a reaction into a luminescent signal.

For a further experiment, the system named is MCF-7 cells. The experiment is described as follows: CCK-8 cell viability assay, MCF-7. The class given is cell-based. Conditions: Homo sapiens, MCF7, 72 h, mean (n = 3). The protocol: (§1) MCF-7 and HCT-116 cells were purchased from the Meilunbio Biotechnology Co., Ltd. (Dalian, China). Cells were cultured at 37 °C with 5% CO2, using DMEM or RPMI 1640 medium (Meilunbio, Dalian, China) with 10% (v/v) fetal bovine serum (Gibco, San Diego, CA, USA) and 1% (v/v) penicillin and streptomycin (Meilunbio, Dalian, China). CCK-8 assay was used to determine the inhibitory effect in vitro. In short, cells were incubated into 96-well plates at the rate of 5000 cells per well. After 24 h of incubation, 100 μL medium was added, which contained a specific concentration of the test compound. After 72 h, 10 μL CCK-8 regent was added and the plate was incubated at 37 °C, 5% CO2 for 1 h. The optical density of each hole at 450 nm was read by a BioTek TS-800 microplate reader. GraphPad Prism 9.3.1 software was used to calculate the IC50 value.
In general terms: Tetrazolium dyes change colour on reduction, which living cells bring about.

In a further experiment the test system is HCT-116 cells. Put plainly: CCK-8 cell viability assay, HCT-116. The class given is cell-based. Conditions: Homo sapiens, mean (n = 3). The protocol: as §1

Bounds are passed on as bounds.

T1 sequence (P42336 whole entry): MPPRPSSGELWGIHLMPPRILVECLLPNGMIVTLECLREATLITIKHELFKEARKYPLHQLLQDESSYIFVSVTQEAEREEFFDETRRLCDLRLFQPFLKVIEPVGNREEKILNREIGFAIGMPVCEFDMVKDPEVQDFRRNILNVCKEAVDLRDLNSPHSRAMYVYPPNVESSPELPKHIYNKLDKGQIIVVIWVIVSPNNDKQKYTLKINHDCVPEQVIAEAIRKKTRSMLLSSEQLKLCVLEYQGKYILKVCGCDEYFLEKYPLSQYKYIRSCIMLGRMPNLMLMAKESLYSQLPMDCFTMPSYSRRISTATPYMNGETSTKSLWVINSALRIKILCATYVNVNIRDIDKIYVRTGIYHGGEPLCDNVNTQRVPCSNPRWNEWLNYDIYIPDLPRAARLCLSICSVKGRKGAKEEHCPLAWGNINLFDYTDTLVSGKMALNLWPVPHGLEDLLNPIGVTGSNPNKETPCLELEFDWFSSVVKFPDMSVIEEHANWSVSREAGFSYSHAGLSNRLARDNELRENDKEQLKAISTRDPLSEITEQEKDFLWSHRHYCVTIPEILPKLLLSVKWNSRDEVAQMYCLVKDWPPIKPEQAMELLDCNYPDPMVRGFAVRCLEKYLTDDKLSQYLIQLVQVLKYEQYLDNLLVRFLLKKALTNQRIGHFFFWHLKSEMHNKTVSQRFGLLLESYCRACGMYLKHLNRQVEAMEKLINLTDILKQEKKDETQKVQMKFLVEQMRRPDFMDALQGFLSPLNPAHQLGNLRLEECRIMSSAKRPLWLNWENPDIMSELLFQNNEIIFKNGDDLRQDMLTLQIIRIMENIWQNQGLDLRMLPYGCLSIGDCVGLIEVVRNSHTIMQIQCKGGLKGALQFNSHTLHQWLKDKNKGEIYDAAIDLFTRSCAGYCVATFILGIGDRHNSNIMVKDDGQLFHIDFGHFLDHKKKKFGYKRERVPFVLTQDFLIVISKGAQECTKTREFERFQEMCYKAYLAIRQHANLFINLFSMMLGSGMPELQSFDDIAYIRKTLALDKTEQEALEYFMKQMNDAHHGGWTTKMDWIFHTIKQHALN
T1 sequence (P27986 whole entry partner): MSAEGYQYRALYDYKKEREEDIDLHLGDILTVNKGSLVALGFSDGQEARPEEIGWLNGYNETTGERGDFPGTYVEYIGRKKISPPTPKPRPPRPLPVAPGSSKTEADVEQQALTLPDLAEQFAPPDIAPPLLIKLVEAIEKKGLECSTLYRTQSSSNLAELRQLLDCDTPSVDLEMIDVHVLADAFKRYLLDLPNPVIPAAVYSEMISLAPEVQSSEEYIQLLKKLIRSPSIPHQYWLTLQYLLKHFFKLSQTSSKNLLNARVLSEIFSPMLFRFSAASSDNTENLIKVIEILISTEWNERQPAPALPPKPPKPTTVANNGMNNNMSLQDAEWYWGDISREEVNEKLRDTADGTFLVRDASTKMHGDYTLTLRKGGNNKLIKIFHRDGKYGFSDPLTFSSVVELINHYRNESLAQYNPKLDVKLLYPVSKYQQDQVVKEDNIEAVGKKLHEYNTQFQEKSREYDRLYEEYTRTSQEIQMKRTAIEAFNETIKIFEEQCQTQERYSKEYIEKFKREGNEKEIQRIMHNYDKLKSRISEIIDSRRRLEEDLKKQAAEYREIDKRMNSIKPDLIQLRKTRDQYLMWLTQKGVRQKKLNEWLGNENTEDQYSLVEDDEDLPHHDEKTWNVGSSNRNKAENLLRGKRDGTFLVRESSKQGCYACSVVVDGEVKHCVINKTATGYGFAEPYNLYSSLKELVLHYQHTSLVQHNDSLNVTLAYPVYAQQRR

One may read the inhibition as the relative decrease from the control value, in per cent. A high value points to a strong effect. The IC50 is the midpoint of a concentration-inhibition curve. A low value points to inhibition by little substance. On to `COc1ncc(-c2ccc3c(c2)sc2c(NCCO)ncnc23)cc1NS(=O)(=O)c1ccc(F)cc1F` [11c, N-(5-(4-((2-hydroxyethyl)amino)benzo[4,5]thieno[3,2-d]pyrimidin-7-yl)-2-methoxypyridin-3-yl) -2,4-difluoro-benzenesulfonamide], for which testing at 0.001 µM against PI3Kα (Table 1) gave an inhibition of 29%. Moreover, the half-maximal inhibitory concentration (IC50) in the experiment on MCF-7 cells (Table 1) amounted to 0.85 ± 0.37 µM; with HCT-116 cells (Table 1, 72 h), 0.59 ± 0.18 µM.

Compound `COCCCNc1ncnc2c1sc1cc(-c3cnc(OC)c(NS(=O)(=O)c4ccc(F)cc4F)c3)ccc12` [11e, N-(2-methoxy-5-(4-((3-methoxypropyl)amino)benzo[4,5]thieno[3,2-d]pyrimidin-7-yl)pyridin-3-yl)-2,4-difluorobenzenesulfonamide] registered an inhibition at 0.001 µM on PI3Kα (Table 1) of 35%. The IC50 with MCF-7 cells (Table 1) is more than 1 µM; in the experiment on HCT-116 cells (Table 1, 72 h) it was more than 1 µM.

In the case of `COc1ncc(-c2ccc3c(c2)sc2c(NC(C)C)ncnc23)cc1NS(=O)(=O)c1ccc(F)cc1F` [11g, N-(5-(4-(isopropylamino)benzo[4,5]thieno[3,2-d]pyrimidin-7-yl)-2-methoxypyridin-3-yl)-2,4-difluorobenzenesulfonamide], on PI3Kα (Table 1), the inhibition at 0.001 µM is 44%. In addition, the IC50 was found to be 0.53 ± 0.16 µM in the experiment with MCF-7 cells (Table 1) and 0.22 ± 0.08 µM in the experiment with HCT-116 cells (Table 1, 72 h).

The compound `COc1ncc(-c2ccc3nccc(-c4ncc(C(=O)NCC5CC5)o4)c3c2)cc1NS(=O)(=O)c1ccc(F)cc1F` [22h, N-(cyclopropylmethyl)-2-(6-(5-((2,4-difluorophenyl)sulfonamido)-6-methoxypyridin-3-yl)quinolin-4-yl)oxazole-5-carboxamide] yielded an inhibition at 0.001 µM at PI3Kα (Table 3) of 78%. Besides, the half-inhibitory concentration (IC50) against PI3Kα worked out at 0.37 nM; with MCF-7 cells (Table 3), 0.35 ± 0.11 µM; in the experiment on HCT-116 cells (Table 3, 72 h), 0.06 ± 0.01 µM.

On to `COc1ncc(-c2ccc3nccc(-c4ncc(C(=O)NC5CC5)o4)c3c2)cc1NS(=O)(=O)c1ccc(F)cc1F` [22d, N-cyclopropyl-2-(6-(5-((2,4-difluorophenyl)sulfonamido)-6-methoxypyridin-3-yl)quinolin-4-yl)oxazole-5-carboxamide], for which 0.001 µM produced 82% inhibition at PI3Kα (Table 3). Moreover, the IC50 against PI3Kα is 0.22 nM; in the experiment with MCF-7 cells (Table 3) it was 0.46 ± 0.11 µM; with HCT-116 cells (Table 3, 72 h) it was 0.1 ± 0.06 µM.

Compound `COCCNc1ncnc2ncc(-c3cnc(OC)c(NS(=O)(=O)c4ccc(F)cc4F)c3)cc12` [17j, N-(2-methoxy-5-(4-((2-methoxyethyl)amino)pyrido[2,3-d]pyrimidin-6-yl)pyridin-3-yl)-2,4-difluorobenzenesulfonamide] displayed an inhibition at 0.001 µM against PI3Kα (Table 2) of 24%. The half-inhibitory concentration (IC50) in the experiment with MCF-7 cells (Table 2) worked out at 0.75 ± 0.25 µM; with HCT-116 cells (Table 2, 72 h) it was 0.42 ± 0.12 µM.

As for `COc1ncc(-c2cnc3ncnc(NCC4CC4)c3c2)cc1NS(=O)(=O)c1ccc(F)cc1F` [17l, N-(5-(4-((cyclopropylmethyl)amino)pyrido[2,3-d]pyrimidin-6-yl)-2-methoxypyridin-3-yl)-2,4-difluorobenzenesulfonamide], the inhibition at 0.001 µM against PI3Kα (Table 2) stood at 25%. For the same compound, the half-maximal inhibitory concentration (IC50) in the experiment with MCF-7 cells (Table 2) worked out at 0.63 ± 0.12 µM; in the experiment on HCT-116 cells (Table 2, 72 h), 0.47 ± 0.17 µM.

`COc1ncc(-c2ccc3c(c2)sc2c(OCCN(C)C)ncnc23)cc1NS(=O)(=O)c1ccc(F)cc1F` [11k, N-(5-(4-(2-(dimethylamino)ethoxy)benzo[4,5]thieno[3,2-d]pyrimidin-7-yl)-2-methoxypyridin-3-yl)-2,4-difluorobenzenesulfonamide] showed an inhibition at 0.001 µM against PI3Kα (Table 1) of 13%. Also, the 50% inhibitory concentration (IC50) with MCF-7 cells (Table 1) stood at 0.69 ± 0.11 µM; in the experiment with HCT-116 cells (Table 1, 72 h), 0.25 ± 0.08 µM.

In the case of `CCCCNC(=O)c1cnc(-c2ccnc3ccc(-c4cnc(OC)c(NS(=O)(=O)c5ccc(F)cc5F)c4)cc23)o1` [22g, N-butyl-2-(6-(5-((2,4-difluorophenyl)sulfonamido)-6-methoxypyridin-3-yl)quinolin-4-yl)oxazole-5-carboxamide], 0.001 µM produced 55% inhibition at PI3Kα (Table 3). Besides, the 50% inhibitory concentration (IC50) in the experiment on MCF-7 cells (Table 3) is 0.45 ± 0.09 µM; in the experiment with HCT-116 cells (Table 3, 72 h), 0.32 ± 0.09 µM.

As for `COc1ncc(-c2ccc3c(c2)sc2c(N4CCC(C)CC4)ncnc23)cc1NS(=O)(=O)c1ccc(F)cc1F` [11b, N-(2-methoxy-5-(4-(4-methylpiperidin-1-yl)benzo[4,5]thieno[3,2-d]pyrimidin-7-yl)pyridin-3-yl) 2,4-difluorobenzenesulfonamide], on PI3Kα (Table 1), 0.001 µM produced 10% inhibition. Further, the IC50 is more than 1 µM in the experiment with MCF-7 cells (Table 1) and more than 1 µM in the experiment on HCT-116 cells (Table 1, 72 h).

In turn, `COc1ncc(-c2cnc3ncnc(NCCO)c3c2)cc1NS(=O)(=O)c1ccc(F)cc1F` [17h, N-(5-(4-((2-hydroxyethyl)amino)pyrido[2,3-d]pyrimidin-6-yl)-2-methoxypyridin-3-yl)-2,4-difluorobenzenesulfonamide] came in with an inhibition at 0.001 µM at PI3Kα (Table 2) of 24%. For the same compound, the IC50 is 0.93 ± 0.48 µM in the experiment with MCF-7 cells (Table 2) and 0.69 ± 0.12 µM in the experiment on HCT-116 cells (Table 2, 72 h).

Compound `COc1ncc(-c2cnc3ncnc(NCC4CCCCC4)c3c2)cc1NS(=O)(=O)c1ccc(F)cc1F` [17k, N-(5-(4-((cyclohexylmethyl)amino)pyrido[2,3-d]pyrimidin-6-yl)-2-methoxypyridin-3-yl)-2,4-difluorobenzenesulfonamide] gave an inhibition at 0.001 µM against PI3Kα (Table 2) of 22%. The IC50 with MCF-7 cells (Table 2) is more than 1 µM; in the experiment on HCT-116 cells (Table 2, 72 h), more than 1 µM.

Turning to `COCCCNC(=O)c1cnc(-c2ccnc3ccc(-c4cnc(OC)c(NS(=O)(=O)c5ccc(F)cc5F)c4)cc23)o1` [22f, 2-(6-(5-((2,4-difluorophenyl)sulfonamido)-6-methoxypyridin-3-yl)quinolin-4-yl)-N-(3-methoxypropyl)oxazole-5-carboxamide], the inhibition at 0.001 µM against PI3Kα (Table 3) was found to be 78%. Besides, the IC50 at PI3Kα came out at 0.38 nM; in the experiment on MCF-7 cells (Table 3), 0.29 ± 0.1 µM; in the experiment on HCT-116 cells (Table 3, 72 h) it was 0.06 ± 0.02 µM.

`CNC(=O)c1cnc(-c2ccnc3ccc(-c4cnc(OC)c(NS(=O)(=O)c5ccc(F)cc5F)c4)cc23)o1` [22b, 2-(6-(5-((2,4-difluorophenyl)sulfonamido)-6-methoxypyridin-3-yl)quinolin-4-yl)-N-methyloxazole-5-carboxamide] displayed an inhibition at 0.001 µM against PI3Kα (Table 3) of 74%. In addition, the IC50 was 0.39 ± 0.08 µM in the experiment on MCF-7 cells (Table 3) and 0.15 ± 0.04 µM with HCT-116 cells (Table 3, 72 h).

On to `CCCCNc1ncnc2ncc(-c3cnc(OC)c(NS(=O)(=O)c4ccc(F)cc4F)c3)cc12` [17c, N-(5-(4-(butylamino)pyrido[2,3-d]pyrimidin-6-yl)-2-methoxypyridin-3-yl)-2,4-difluorobenzenesulfonamide], for which testing at 0.001 µM at PI3Kα (Table 2) gave an inhibition of 21%. Also, the 50% inhibitory concentration (IC50) in the experiment with MCF-7 cells (Table 2) is more than 1 µM; in the experiment on HCT-116 cells (Table 2, 72 h), 0.83 ± 0.25 µM.

With `COc1ncc(-c2cnc3ncnc(N4CCOCC4)c3c2)cc1NS(=O)(=O)c1ccc(F)cc1F` [17e, N-(2-methoxy-5-(4-morpholinopyrido[2,3-d]pyrimidin-6-yl)pyridin-3-yl)2,4-difluorobenzenesulfonamide], on PI3Kα (Table 2), the inhibition at 0.001 µM was 36%. Further, the IC50 in the experiment on MCF-7 cells (Table 2) is 0.92 ± 0.41 µM; in the experiment on HCT-116 cells (Table 2, 72 h), 0.64 ± 0.2 µM.

`COc1ncc(-c2cnc3ncnc(NC4CC4)c3c2)cc1NS(=O)(=O)c1ccc(F)cc1F` [17b, N-(5-(4-(cyclopropylamino)pyrido[2,3-d]pyrimidin-6-yl)-2-methoxypyridin-3-yl)-2,4-difluorobenzenesulfonamide] returned an inhibition at 0.001 µM on PI3Kα (Table 2) of 21%. Also, the half-inhibitory concentration (IC50) is 0.91 ± 0.39 µM with MCF-7 cells (Table 2) and 0.35 ± 0.17 µM in the experiment on HCT-116 cells (Table 2, 72 h).

For `COc1ncc(-c2cnc3ncnc(NC(C)C)c3c2)cc1NS(=O)(=O)c1ccc(F)cc1F` [17a, 2,4-difluoro-N-(5-(4-(isopropylamino)pyrido[2,3-d]pyrimidin-6-yl)-2-methoxypyridin-3-yl)benzenesulfonamide], testing at 0.001 µM on PI3Kα (Table 2) gave an inhibition of 39%. The IC50 was determined as 0.85 ± 0.3 µM in the experiment with MCF-7 cells (Table 2) and 0.59 ± 0.15 µM in the experiment with HCT-116 cells (Table 2, 72 h).

As for `COc1ccc(CCNC(=O)c2cnc(-c3ccnc4ccc(-c5cnc(OC)c(NS(=O)(=O)c6ccc(F)cc6F)c5)cc34)o2)cc1` [22k, 2-(6-(5-((2,4-difluorophenyl)sulfonamido)-6-methoxypyridin-3-yl)quinolin-4-yl)-N-(4-methoxyphenethyl)oxazole-5-carboxamide], at PI3Kα (Table 3), at 0.001 µM the inhibition was 22%. Moreover, the IC50 in the experiment on MCF-7 cells (Table 3) is more than 1 µM; in the experiment with HCT-116 cells (Table 3, 72 h), more than 1 µM.

The compound `CCCCNc1ncnc2c1sc1cc(-c3cnc(OC)c(NS(=O)(=O)c4ccc(F)cc4F)c3)ccc12` [11i, N-(5-(4-(butylamino)benzo[4,5]thieno[3,2-d]pyrimidin-7-yl)-2-methoxypyridin-3-yl)-2,4-difluorobenzenesulfonamide] registered an inhibition at 0.001 µM on PI3Kα (Table 1) of 15%. In addition, the IC50 was more than 1 µM with MCF-7 cells (Table 1) and more than 1 µM with HCT-116 cells (Table 1, 72 h).

As for `COCCCNc1ncnc2ncc(-c3cnc(OC)c(NS(=O)(=O)c4ccc(F)cc4F)c3)cc12` [17i, N-(2-methoxy-5-(4-((3-methoxypropyl)amino)pyrido[2,3-d]pyrimidin-6-yl)pyridin-3-yl)-2,4-difluorobenzenesulfonamide], the 50% inhibitory concentration (IC50) in the experiment on MCF-7 cells (Table 2) is more than 1 µM; with HCT-116 cells (Table 2, 72 h), more than 1 µM.
